In PubChem BioAssay AID2382 (Broad Institute, 2010):
Inconclusive results are not listed. Calls of active or inactive are those of the source.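 Rule for the calls: active = IC50 at or below a set limit past the top dose tested; inconclusive = flat curve with 30 to 70% signal change, or a failed fit; inactive = IC50 above that set limit.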

Tested on: NIH3T3-HGL HSF1-luciferase reporter, MG132-induced, 8 h
Assay: decrease of HSF1-responsive luciferase luminescence – cell-based, NIH3T3, dose retest, confirmation (AID 2382)

Structure (SMILES) | IC50
O=C(NN=C1CCC(c2ccccc2)CC1)c1cc2c(s1)CCCC2 (stereo not drawn) | > 19.5 µM (inactive)
Cc1cc(=O)[nH]c(NN=C2CCC(C(C)(C)C)CC2)n1 (stereo not drawn) | > 19.5 µM (inactive)
C#CCOCCOCCOCCNc1nc(N2CCN(C(=O)[C@H](CCC(=O)O)n3cc(C(N)Cc4ccc(O)cc4)nn3)CC2)nc(N2CCN(C(=O)[C@H](Cc3ccc(O)cc3)n3cc(C(N)[C@H](C)CC)nn3)CC2)n1 (stereo partly drawn) | > 19.5 µM (inactive)
